Experiments:
NAMPT = NAMPT (Homo sapiens, UniProt P43490); assay: TR-FRET Binding Assay of NAMPT with PRPP; settings: with 200 μM PRPP and 2.5 mM ATP; 2 nM NAMPT, 2 nM probe, 16 hours equilibration
Outline: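 Substrate-containing variant: 200 μM PRPP plus 2.5 mM ATP are added to 2 nM NAMPT and 2 nM probe, with a 16-hour incubation ahead of TR-FRET reading.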

PC3 cells = assay: NAMPT Cell Proliferation Assay; type: cell-based; settings: Homo sapiens, PC-3, 120 h, 5 days incubation, cell viability by Cell Titer Glo
Outline: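 Proliferation of PC3 cells treated 5 days with a 10-fold compound series (top 10 μM) was quantified by Cell Titer Glo luminescence; IC50s were fitted from percent inhibition.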

[1] = target: NAMPT (human, recombinant, C-terminally His-tagged) (Homo sapiens, UniProt P43490); assay: Time-Resolved Fluorescence Resonance Energy Transfer (TR-FRET) Binding Assay of NAMPT; settings: without substrates; 6.8 nM NAMPT, 200 nM probe, 3 hours equilibration
Chain of NAMPT (human, recombinant, C-terminally His-tagged) (P43490 whole entry): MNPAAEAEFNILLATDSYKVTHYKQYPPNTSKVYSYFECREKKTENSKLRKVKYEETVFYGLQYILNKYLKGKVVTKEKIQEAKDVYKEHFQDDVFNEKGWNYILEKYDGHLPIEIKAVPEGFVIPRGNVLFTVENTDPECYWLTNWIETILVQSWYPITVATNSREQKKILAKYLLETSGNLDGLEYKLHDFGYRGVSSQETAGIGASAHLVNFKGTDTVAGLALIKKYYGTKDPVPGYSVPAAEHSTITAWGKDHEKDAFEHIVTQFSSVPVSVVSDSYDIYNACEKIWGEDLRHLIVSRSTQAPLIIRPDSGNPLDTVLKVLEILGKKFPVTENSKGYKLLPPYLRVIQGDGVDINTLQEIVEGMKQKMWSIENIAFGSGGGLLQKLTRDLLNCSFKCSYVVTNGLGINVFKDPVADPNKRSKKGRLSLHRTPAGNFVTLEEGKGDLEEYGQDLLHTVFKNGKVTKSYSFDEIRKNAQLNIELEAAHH
Outline: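 In a displacement format, the nicotinamide-site tracer at 200 nM competed with test compound for 6.8 nM enzyme detected via 1 nM terbium anti-His antibody; incubation lasted 3 hours at room temperature in 50 mM HEPES pH 7.5, 100 mM NaCl. Normalized 520/495 nm emission ratios gave IC50 values.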

Chain of NAMPT (P43490 whole entry): as above

Row | IC50 (NAMPT) | IC50 (PC3 cells) | IC50 [1] | Compound
1 | 0.917 nM | 7.54 nM | 236 nM | COc1ccccc1C(=O)N1CCC(c2ccc(C(=O)NCc3ccn4ccnc4c3)cc2)C1 (stereo not drawn) [Example 587, N-(imidazo[1,2-a]pyridin-7-ylmethyl)-4-[1-(2-methoxybenzoyl)pyrrolidin-3-yl]benzamide]
2 | 0.623 nM | 181 nM | 684 nM | O=C(NCc1ccn2ccnc2c1)c1ccc(C2CCN(C(=O)c3cscn3)C2)cc1 (stereo not drawn) [Example 588, N-(imidazo[1,2-a]pyridin-7-ylmethyl)-4-[1-(1,3-thiazol-4-ylcarbonyl)pyrrolidin-3-yl]benzamide]
3 | 0.887 nM | 1.31 nM | 16.1 nM | O=C(NCc1ccn2ccnc2c1)c1ccc(C2CCN(C(=O)c3ccccc3F)C2)cc1 (stereo not drawn) [Example 589, 4-[1-(2-fluorobenzoyl)pyrrolidin-3-yl]-N-(imidazo[1,2-a]pyridin-7-ylmethyl)benzamide]
4 | 0.734 nM | 189 nM | 666 nM | O=C(NCc1ccn2ccnc2c1)c1ccc(C2CCN(C(=O)c3ccco3)C2)cc1 (stereo not drawn) [Example 590, 4-[1-(furan-2-ylcarbonyl)pyrrolidin-3-yl]-N-(imidazo[1,2-a]pyridin-7-ylmethyl)benzamide]
5 | 0.761 nM | 19.3 nM | 138 nM | O=C(NCc1ccn2ccnc2c1)c1ccc(C2CCN(C(=O)c3cccc(F)c3)C2)cc1 (stereo not drawn) [Example 591, 4-[1-(3-fluorobenzoyl)pyrrolidin-3-yl]-N-(imidazo[1,2-a]pyridin-7-ylmethyl)benzamide]
6 | 0.603 nM | 3.75 nM | 38.8 nM | O=C(NCc1ccn2ccnc2c1)c1ccc(C2CCN(C(=O)c3ccc(F)cc3F)C2)cc1 (stereo not drawn) [Example 592, 4-[1-(2,4-difluorobenzoyl)pyrrolidin-3-yl]-N-(imidazo[1,2-a]pyridin-7-ylmethyl)benzamide]
7 | 0.544 nM | 677 nM | 767 nM | Cn1ccc(C(=O)N2CCC(c3ccc(C(=O)NCc4ccn5ccnc5c4)cc3)C2)n1 (stereo not drawn) [Example 593, N-(imidazo[1,2-a]pyridin-7-ylmethyl)-4-{1-[(1-methyl-1H-pyrazol-3-yl)carbonyl]pyrrolidin-3-yl}benzamide]
8 | 0.682 nM | 1.11 nM | 22.7 nM | O=C(NCc1ccn2ccnc2c1)c1ccc(C2CCN(C(=O)c3ccccc3Cl)C2)cc1 (stereo not drawn) [Example 594, 4-[1-(2-chlorobenzoyl)pyrrolidin-3-yl]-N-(imidazo[1,2-a]pyridin-7-ylmethyl)benzamide]
9 | 0.746 nM | 6.93 nM | 133 nM | Cc1ccccc1C(=O)N1CCC(c2ccc(C(=O)NCc3ccn4ccnc4c3)cc2)C1 (stereo not drawn) [Example 595, N-(imidazo[1,2-a]pyridin-7-ylmethyl)-4-[1-(2-methylbenzoyl)pyrrolidin-3-yl]benzamide]
10 | 0.909 nM | 257 nM | 691 nM | O=C(NCc1ccn2ccnc2c1)c1ccc(C2CCN(C(=O)c3ccc(Cl)cc3)C2)cc1 (stereo not drawn) [Example 596, 4-[1-(4-chlorobenzoyl)pyrrolidin-3-yl]-N-(imidazo[1,2-a]pyridin-7-ylmethyl)benzamide]
11 | 0.862 nM | 33.5 nM | 232 nM | O=C(NCc1ccn2ccnc2c1)c1ccc(C2CCN(C(=O)c3cccc(Cl)c3)C2)cc1 (stereo not drawn) [Example 597, 4-[1-(3-chlorobenzoyl)pyrrolidin-3-yl]-N-(imidazo[1,2-a]pyridin-7-ylmethyl)benzamide]
12 | 0.804 nM | 16.6 nM | 457 nM | CCC(C)(C)C(=O)N1CCC(c2ccc(C(=O)NCc3ccn4ccnc4c3)cc2)C1 (stereo not drawn) [Example 598, 4-[1-(2,2-dimethylbutanoyl)pyrrolidin-3-yl]-N-(imidazo[1,2-a]pyridin-7-ylmethyl)benzamide]
13 | 0.786 nM | 52.3 nM | 527 nM | O=C(NCc1ccn2ccnc2c1)c1ccc(C2CCN(C(=O)c3cc(F)cc(F)c3)C2)cc1 (stereo not drawn) [Example 599, 4-[1-(3,5-difluorobenzoyl)pyrrolidin-3-yl]-N-(imidazo[1,2-a]pyridin-7-ylmethyl)benzamide]
14 | 0.169 nM | 110 nM | 510 nM | Cc1ccc(C(=O)N2CCC(c3ccc(C(=O)NCc4ccn5ccnc5c4)cc3)C2)cc1 (stereo not drawn) [Example 600, N-(imidazo[1,2-a]pyridin-7-ylmethyl)-4-[1-(4-methylbenzoyl)pyrrolidin-3-yl]benzamide]
15 | 0.682 nM | 56.7 nM | 712 nM | CC(C)CC(=O)N1CCC(c2ccc(C(=O)NCc3ccn4ccnc4c3)cc2)C1 (stereo not drawn) [Example 601, N-(imidazo[1,2-a]pyridin-7-ylmethyl)-4-[1-(3-methylbutanoyl)pyrrolidin-3-yl]benzamide]
16 | 0.887 nM | 48.6 nM | 786 nM | CC(C)(C)CC(=O)N1CCC(c2ccc(C(=O)NCc3ccn4ccnc4c3)cc2)C1 (stereo not drawn) [Example 602, 4-[1-(3,3-dimethylbutanoyl)pyrrolidin-3-yl]-N-(imidazo[1,2-a]pyridin-7-ylmethyl)benzamide]
17 | 1.01 nM | 695 nM | 1030 nM | N#Cc1cccc(C(=O)N2CCC(c3ccc(C(=O)NCc4ccn5ccnc5c4)cc3)C2)c1 (stereo not drawn) [Example 603, 4-[1-(3-cyanobenzoyl)pyrrolidin-3-yl]-N-(imidazo[1,2-a]pyridin-7-ylmethyl)benzamide]
18 | 0.843 nM | 10.1 nM | 151 nM | COc1cccc(C(=O)N2CCC(c3ccc(C(=O)NCc4ccn5ccnc5c4)cc3)C2)c1 (stereo not drawn) [Example 604, N-(imidazo[1,2-a]pyridin-7-ylmethyl)-4-[1-(3-methoxybenzoyl)pyrrolidin-3-yl]benzamide]
19 | 0.886 nM | 66.1 nM | 559 nM | COc1ccc(C(=O)N2CCC(c3ccc(C(=O)NCc4ccn5ccnc5c4)cc3)C2)cc1 (stereo not drawn) [Example 605, N-(imidazo[1,2-a]pyridin-7-ylmethyl)-4-[1-(4-methoxybenzoyl)pyrrolidin-3-yl]benzamide]
20 | 0.169 nM | 34.8 nM | 281 nM | Cn1cccc1C(=O)N1CCC(c2ccc(C(=O)NCc3ccn4ccnc4c3)cc2)C1 (stereo not drawn) [Example 606, N-(imidazo[1,2-a]pyridin-7-ylmethyl)-4-{1-[(1-methyl-1H-pyrrol-2-yl)carbonyl]pyrrolidin-3-yl}benzamide]
21 | 0.796 nM | 74.4 nM | 478 nM | O=C(NCc1ccn2ccnc2c1)c1ccc(C2CCN(C(=O)CC3CCCCC3)C2)cc1 (stereo not drawn) [Example 607, 4-[1-(cyclohexylacetyl)pyrrolidin-3-yl]-N-(imidazo[1,2-a]pyridin-7-ylmethyl)benzamide]
22 | 0.51 nM | 148 nM | 481 nM | O=C(NCc1ccn2ccnc2c1)c1ccc(C2CCN(C(=O)c3ccncc3)C2)cc1 (stereo not drawn) [Example 608, N-(imidazo[1,2-a]pyridin-7-ylmethyl)-4-[1-(pyridin-4-ylcarbonyl)pyrrolidin-3-yl]benzamide]
23 | 0.62 nM | 142 nM | 598 nM | O=C(NCc1ccn2ccnc2c1)c1ccc(C2CCN(C(=O)c3cccnc3)C2)cc1 (stereo not drawn) [Example 609, N-(imidazo[1,2-a]pyridin-7-ylmethyl)-4-[1-(pyridin-3-ylcarbonyl)pyrrolidin-3-yl]benzamide]

Source: patent publication US9187472B2 (AbbVie Inc., priority 2012, dated 2015)
